Numbers after ± are expanded uncertainties.

This data set can be described thus: refractive index (Na D-line) (dimensionless). The following applies: 298.15 K; 101.33 kPa; Liquid; Standard Abbe refractometry.
Take `Cc1ccccc1` [toluene]: the refractive index (as a rule, a measure of how strongly the sample bends light) amounted to 1.494 ± 0.0007.

Turning to `CCOC(C)(C)C` [2-ethoxy-2-methylpropane], the refractive index stood at 1.373 ± 0.0007.

As for `CC(C)CC(C)(C)C` [2,2,4-trimethylpentane], the refractive index stood at 1.389 ± 0.0007. Turning to `c1ccsc1` [thiophene], the refractive index worked out at 1.5255 ± 0.0007.
